Data as given in patent publication US20260097083A1, “METHOD FOR PRODUCING PANCREATIC ENDODERM CELLS” (Kyoto University, priority 2022, published 2026).

What was measured:
[1] = tested on: pancreatic endoderm cells; assay: α-SMA immunostaining at the third passage of expansion culture; assay type: cell-based; conditions: Y-27632 50 μM vs non-administration, FIG. 6
Experimental: FIG. 6 Images of pancreatic endoderm cells immunostained against α-SMA at the third passage of the pancreatic endoderm cells with or without the administration of Y-27632 (50 μM). The cells after the expansion culture were washed with PBS(−) twice, and were then fixed using 4% PFA at 4° C. for 20 minutes. The cells were blocked with a blocking solution (PBS(−) containing 5% donkey serum and 0.4% Triton X-100) at room temperature for 30 minutes. The cells were incubated in a primary antibody solution diluted with the blocking solution at 4° C. overnight. After the primary antibody solution was washed off, the cells were incubated at room temperature for 1 hour in a fluorescent secondary antibody solution diluted with the blocking solution. Fluorescently immunostained images were acquired using BZ-710 or BZ-800 (Keyence). A mechanism by which the expansion culture of pancreatic endoderm cells with Y-27632 was enabled was examined. It was shown that, at the third passage of the expansion culture, the number of α-SMA-positive cells increased in the Y-27632 non-administration group compared with the group to which Y-27632 at a concentration of 50 μM was administered (FIG. 6). That is to say, it was observed that fibrosis or epithelial-mesenchymal transition was suppressed by administering Y-27632 to the cells.

[2] = tested on: PDX1+/NKX6.1+ pancreatic endoderm cells; assay: Expansion culture with Y-27632 at different concentrations; assay type: cell-based; conditions: 40 days, FIG. 5-A
Experimental: FIG. 5-A Changes in the number of PDX1^+/NKX6.1^+ pancreatic endoderm cells and the total number of cells during expansion culture with Y-27632 (0, 10, or 50 μM). (1) After the cells produced in clause 1 above were washed with PBS(−), 1 ml of 0.25% trypsin-EDTA was added thereto, and the cells were incubated at 37° C. and 5% CO2 for 5 minutes. (2) The adherent cells were detached through pipetting and were added to a 50-ml centrifuge tube. (3) 4 ml of DMEM (Dulbecco's Modified Eagle Medium)/10% FBS/PS (penicillin-streptomycin) was added to the centrifuge tube. (4) The resulting mixture was centrifuged at 400 G for 3 minutes, and the supernatant was removed. (5) The cells were suspended in improved MEM (containing 10 μM Y-27632, 0.5×B-27 Supplement, and 100 U/ml penicillin/streptomycin), and were counted. (6) When the cells were seeded on a 6-well plate, an amount of the suspension necessary to provide 1×10^6 cells/well was collected and was centrifuged at 400 G for 3 minutes (2×10^5 cells/well for a 24-well plate). (7) After the supernatant was removed, the cells were re-suspended in improved MEM (containing 100 ng/ml KGF, 50 ng/ml EGF, 10 mM nicotinamide, 50 μM Y-27632, 0.5×B-27 Supplement, and 100 U/ml penicillin/streptomycin), the suspension was adjusted to correspond to 2 ml/well, and then the cells were seeded. A 6-well plate to which the cells were to be seeded had been coated in advance by adding a solution formed by mixing 10 μl of iMatrix-511 silk and 1.5 ml of PBS(−) to each well 1 hour before seeding, and incubating the plate at 37° C. and 5% CO2 for 1 hour. (8) On the next day (Day 1), the cells were washed with improved MEM, and then the culture medium was changed to improved MEM (5 ml/well) containing 100 ng/ml KGF, 50 ng/ml EGF, 10 mM nicotinamide, 50 μM Y-27632, 0.5×B-27 Supplement, and 100 U/ml penicillin/streptomycin. (9) The cells were washed with improved MEM 3 days after that (on Day 4), and then the culture medium was changed to the same culture medium as that in the step (7) (5 ml/well). (10) The steps (1) to (7) above were conducted 3 days after that (on Day 7), and the next passage (expansion culture) was conducted. Expansion culture and passage culture were repeated by repeating the steps (8), (9), and (10) from the next day. One round of the passage (expansion culture) corresponded to 7 days (operations above). FIGS. 4-A show the outline of this procedure. […]

Structure (SMILES): C[C@@H](N)[C@H]1CC[C@H](C(=O)Nc2ccncc2)CC1 [Y-27632]
- fibrosis or epithelial-mesenchymal transition (α-SMA-positive cells) [1]: suppressed
- number of PDX1+/NKX6.1+ pancreatic endoderm cells increased by a factor of ([2]; Y-27632 10 μM): about 1×10^4
- total number of cells increased by a factor of ([2]; Y-27632 10 μM): about 1×10^4
- number of PDX1+/NKX6.1+ pancreatic endoderm cells increased by a factor of ([2]; Y-27632 50 μM): about 1×10^4
- total number of cells increased by a factor of ([2]; Y-27632 50 μM): about 1×10^4
